Reference: patent publication US12344600B2, “c-Myc mRNA translation modulators and uses thereof in the treatment of cancer” (Anima Biotech Inc., priority 2022, dated 2025)

tested on: c-Myc; assay: c-Myc immunofluorescence assay; type: cell-based, human; conditions: A549 cells, 24 hours, anti-c-Myc immunofluorescence
Procedure, shortened: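 Read-out is imaged c-Myc immunofluorescence, nucleus-segmented, in A549 lung carcinoma cells exposed to compound dose series for 24 h after 48 h growth. Fixation 4% paraformaldehyde, Triton permeabilization, antibody staining at room temperature; EC50 from logistic fit of signal versus concentration.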

| Structure (SMILES) | Myc Efficacy (−LogEC50) |
| --- | --- |
| COc1ccc(-c2noc(N3CCC(C(=O)NCC4CCN(CC5CCC5)C4)CC3)n2)cc1 (stereo not shown) [Compound 336, N-((1-(cyclobutylmethyl)pyrrolidin-3-yl)methyl)-1-(3-(4-methoxyphenyl)-1,2,4-oxadiazol-5-yl)piperidine-4-carboxamide] | ++ (++ ≥5 and <6) |
| COc1ccc(-c2noc(N3CCC(C(=O)NCC4CCN(CC5CC5(C)C)C4)CC3)n2)cc1 (stereo not shown) [Compound 337, N-((1-((2,2-dimethylcyclopropyl)methyl)pyrrolidin-3-yl)methyl)-1-(3-(4-methoxyphenyl)-1,2,4-oxadiazol-5-yl)piperidine-4-carboxamide] | ++ (++ ≥5 and <6) |
| COc1ccc(-c2noc(N3CCC(C(=O)NCC4CCN(CC5CCCCC5)C4)CC3)n2)cc1 (stereo not shown) [Compound 338, N-((1-(cyclohexylmethyl)pyrrolidin-3-yl)methyl)-1-(3-(4-methoxyphenyl)-1,2,4-oxadiazol-5-yl)piperidine-4-carboxamide] | ++ (++ ≥5 and <6) |
| COc1ccc(-c2noc(N3CCC(C(=O)NCC4CCN(Cc5ccc(O)cc5)C4)CC3)n2)cc1 (stereo not shown) [Compound 339, N-((1-(4-hydroxybenzyl)pyrrolidin-3-yl)methyl)-1-(3-(4-methoxyphenyl)-1,2,4-oxadiazol-5-yl)piperidine-4-carboxamide] | ++ (++ ≥5 and <6) |
| COc1ccc(-c2noc(N3CCC(C(=O)NCC4CCN(Cc5ccccn5)C4)CC3)n2)cc1 (stereo not shown) [Compound 340, 1-(3-(4-methoxyphenyl)-1,2,4-oxadiazol-5-yl)-N-((1-(pyridin-2-ylmethyl)pyrrolidin-3-yl)methyl)piperidine-4-carboxamide] | ++ (++ ≥5 and <6) |
| COc1ccc(-c2noc(N3CCC(C(=O)NCC4CCN(Cc5cncs5)C4)CC3)n2)cc1 (stereo not shown) [Compound 341, 1-(3-(4-methoxyphenyl)-1,2,4-oxadiazol-5-yl)-N-((1-(thiazol-5-ylmethyl)pyrrolidin-3-yl)methyl)piperidine-4-carboxamide] | + (+ >3 and <5) |
| COc1ccc(-c2noc(N3CCC(C(=O)NCC4CCN(Cc5ccccc5)C4)CC3)n2)cc1 (stereo not shown) [Compound 342, N-((1-benzylpyrrolidin-3-yl)methyl)-1-(3-(4-methoxyphenyl)-1,2,4-oxadiazol-5-yl)piperidine-4-carboxamide] | ++ (++ ≥5 and <6) |
| COc1ccc(-c2noc(N3CCC(C(=O)NCC4CCN(CC(F)(F)F)C4)CC3)n2)cc1 (stereo not shown) [Compound 343, 1-(3-(4-methoxyphenyl)-1,2,4-oxadiazol-5-yl)-N-((1-(2,2,2-trifluoroethyl)pyrrolidin-3-yl)methyl)piperidine-4-carboxamide] | + (+ >3 and <5) |
| C#CCCC1(CCOc2cc(-c3noc(N4CCC(C(=O)NCC5CCN(Cc6ccc(C)cc6)C5)CC4)n3)ccc2OC)N=N1 (stereo not shown) [Compound 344, 1-(3-(3-(2-(3-(but-3-yn-1-yl)-3H-diazirin-3-yl)ethoxy)-4-methoxyphenyl)-1,2,4-oxadiazol-5-yl)-N-((1-(4-methylbenzyl)pyrrolidin-3-yl)methyl)piperidine-4-carboxamide] | ++ (++ ≥5 and <6) |
| COc1ccc(-c2noc(N3CCN(C(=O)NCC4CCN(c5ccccc5)C4)CC3)n2)cc1 (stereo not shown) [Compound 345, 4-(3-(4-methoxyphenyl)-1,2,4-oxadiazol-5-yl)-N-((1-phenylpyrrolidin-3-yl)methyl)piperazine-1-carboxamide] | + (+ >3 and <5) |
| COc1ccc(-c2noc(N3CCC(C(=O)NC4CCN(c5ccccc5)C4)CC3)n2)cc1 (stereo not shown) [Compound 346, 1-(3-(4-methoxyphenyl)-1,2,4-oxadiazol-5-yl)-N-(1-phenylpyrrolidin-3-yl)piperidine-4-carboxamide] | ++ (++ ≥5 and <6) |
| COc1ccc(-c2noc(N3CCC(C(=O)NCC4CCN(CC5CCOC5)C4)CC3)n2)cc1 (stereo not shown) [Compound 347, 1-(3-(4-methoxyphenyl)-1,2,4-oxadiazol-5-yl)-N-((1-((tetrahydrofuran-3-yl)methyl)pyrrolidin-3-yl)methyl)piperidine-4-carboxamide] | + (+ >3 and <5) |
| COc1ccc(-c2noc(N3CCC(C(=O)NCC4CCN(Cc5ccncc5C)C4)CC3)n2)cc1 (stereo not shown) [Compound 348, 1-(3-(4-methoxyphenyl)-1,2,4-oxadiazol-5-yl)-N-((1-((3-methylpyridin-4-yl)methyl)pyrrolidin-3-yl)methyl)piperidine-4-carboxamide] | ++ (++ ≥5 and <6) |
| COc1ccc(-c2noc(N3CCC(C(=O)NCC4CCN(Cc5cccc(C)c5)C4)CC3)n2)cc1 (stereo not shown) [Compound 349, 1-(3-(4-methoxyphenyl)-1,2,4-oxadiazol-5-yl)-N-((1-(3-methylbenzyl)pyrrolidin-3-yl)methyl)piperidine-4-carboxamide] | ++ (++ ≥5 and <6) |
| COc1ccc(-c2noc(N3CCC(C(=O)NCC4CCN(Cc5ncccc5C)C4)CC3)n2)cc1 (stereo not shown) [Compound 350, 1-(3-(4-methoxyphenyl)-1,2,4-oxadiazol-5-yl)-N-((1-((3-methylpyridin-2-yl)methyl)pyrrolidin-3-yl)methyl)piperidine-4-carboxamide] | ++ (++ ≥5 and <6) |
| COc1ccc(-c2noc(N3CCC(C(=O)NCC4CCN(Cc5ccc(C)nc5)C4)CC3)n2)cc1 (stereo not shown) [Compound 351, 1-(3-(4-methoxyphenyl)-1,2,4-oxadiazol-5-yl)-N-((1-((6-methylpyridin-3-yl)methyl)pyrrolidin-3-yl)methyl)piperidine-4-carboxamide] | ++ (++ ≥5 and <6) |
| COc1ccc(-c2noc(N3CCC(C(=O)NCC4CCN(Cc5ccns5)C4)CC3)n2)cc1 (stereo not shown) [Compound 352, N-((1-(isothiazol-5-ylmethyl)pyrrolidin-3-yl)methyl)-1-(3-(4-methoxyphenyl)-1,2,4-oxadiazol-5-yl)piperidine-4-carboxamide] | ++ (++ ≥5 and <6) |
| COc1ccc(-c2noc(N3CCC(C(=O)NCC4CCN(CC5CCN(C)CC5)C4)CC3)n2)cc1 (stereo not shown) [Compound 353, 1-(3-(4-methoxyphenyl)-1,2,4-oxadiazol-5-yl)-N-((1-((1-methylpiperidin-4-yl)methyl)pyrrolidin-3-yl)methyl)piperidine-4-carboxamide] | ++ (++ ≥5 and <6) |
| COc1ccc(-c2noc(N3CCC(C(=O)NCC4CCN(CC5CCSCC5)C4)CC3)n2)cc1 (stereo not shown) [Compound 354, 1-(3-(4-methoxyphenyl)-1,2,4-oxadiazol-5-yl)-N-((1-((tetrahydro-2H-thiopyran-4-yl)methyl)pyrrolidin-3-yl)methyl)piperidine-4-carboxamide] | ++ (++ ≥5 and <6) |
| COc1ccc(-c2noc(N3CCC(C(=O)NCC4CCN(CC5CCOCC5)C4)CC3)n2)cc1 (stereo not shown) [Compound 355, 1-(3-(4-methoxyphenyl)-1,2,4-oxadiazol-5-yl)-N-((1-((tetrahydro-2H-pyran-4-yl)methyl)pyrrolidin-3-yl)methyl)piperidine-4-carboxamide] | + (+ >3 and <5) |
| COc1ccc(-c2noc(N3CCC(C(=O)NCC4CCN(Cc5cccnc5)C4)CC3)n2)cc1 (stereo not shown) [Compound 356, 1-(3-(4-methoxyphenyl)-1,2,4-oxadiazol-5-yl)-N-((1-(pyridin-3-ylmethyl)pyrrolidin-3-yl)methyl)piperidine-4-carboxamide] | ++ (++ ≥5 and <6) |
| COc1ccc(-c2noc(N3CCC(C(=O)NCC4CCN(Cc5ccsc5)C4)CC3)n2)cc1 (stereo not shown) [Compound 357, 1-(3-(4-methoxyphenyl)-1,2,4-oxadiazol-5-yl)-N-((1-(thiophen-3-ylmethyl)pyrrolidin-3-yl)methyl)piperidine-4-carboxamide] | ++ (++ ≥5 and <6) |
| COc1ccc(-c2noc(N3CCC(C(=O)NCC4CCN(Cc5ccccc5F)C4)CC3)n2)cc1 (stereo not shown) [Compound 358, N-((1-(2-fluorobenzyl)pyrrolidin-3-yl)methyl)-1-(3-(4-methoxyphenyl)-1,2,4-oxadiazol-5-yl)piperidine-4-carboxamide] | ++ (++ ≥5 and <6) |
| COc1ccc(-c2noc(N3CCC(C(=O)NCC4CCN(Cc5ccncc5F)C4)CC3)n2)cc1 (stereo not shown) [Compound 359, N-((1-((3-fluoropyridin-4-yl)methyl)pyrrolidin-3-yl)methyl)-1-(3-(4-methoxyphenyl)-1,2,4-oxadiazol-5-yl)piperidine-4-carboxamide] | ++ (++ ≥5 and <6) |
| COc1ccc(-c2noc(N3CCC(C(=O)NCC4CCN(Cc5cscn5)C4)CC3)n2)cc1 (stereo not shown) [Compound 360, 1-(3-(4-methoxyphenyl)-1,2,4-oxadiazol-5-yl)-N-((1-(thiazol-4-ylmethyl)pyrrolidin-3-yl)methyl)piperidine-4-carboxamide] | + (+ >3 and <5) |
| COc1ccc(-c2noc(N3CCC(C(=O)NCC4CCN(CC5CCCCO5)C4)CC3)n2)cc1 (stereo not shown) [Compound 361, 1-(3-(4-methoxyphenyl)-1,2,4-oxadiazol-5-yl)-N-((1-((tetrahydro-2H-pyran-2-yl)methyl)pyrrolidin-3-yl)methyl)piperidine-4-carboxamide] | ++ (++ ≥5 and <6) |
| COc1ccc(-c2noc(N3CCC(C(=O)NCC4CCN(CCO)C4)CC3)n2)cc1 (stereo not shown) [Compound 362, N-((1-(2-hydroxyethyl)pyrrolidin-3-yl)methyl)-1-(3-(4-methoxyphenyl)-1,2,4-oxadiazol-5-yl)piperidine-4-carboxamide] | + (+ >3 and <5) |
| COc1ccc(-c2noc(N3CCC(C(=O)NCC4CCN(Cc5cccn5C)C4)CC3)n2)cc1 (stereo not shown) [Compound 363, 1-(3-(4-methoxyphenyl)-1,2,4-oxadiazol-5-yl)-N-((1-((1-methyl-1H-pyrrol-2-yl)methyl)pyrrolidin-3-yl)methyl)piperidine-4-carboxamide] | + (+ >3 and <5) |
